The test system of series [1] is male C57BL/6J mice. The series is described as follows: Acetone-ether-water (AEW)-induced pruritus model, oral dosing. The class given is in vivo, mouse. On the procedure: (§1) The efficacy of KM-001 was assessed in an acetone-ether-water (AEW)-induced pruritus model in male C57BL/6J mice, a model induced by daily treatment of an acetone/ether (1:1) mixture and water applied to the animal's cheek. KM-001 (10 mg/kg, 1 mg/kg, 0.1 mg/kg and 0.01 mg/kg) was administered orally to 20 mice. The amount of time spent scratching and the number of bouts during the 20 minutes were recorded by an observer. Blood and skin samples were collected at 0, 0.5 hr, 1 hr and 1.5 hr post dosing.

Series [2] is described as follows: Plasma concentration in AEW pruritus study, oral dosing. Particulars: mice, oral 0.1 mg/kg. The class given is in vivo, mouse. On the procedure: as §1
Series [3] can be described thus: Blood concentrations in minipig dermal toxicity study (13 weeks). The class given is in vivo. Particulars: for AUC0-tlast / Cmax: MiniPig, 6 g/day. The method, then:
(§2) I: Blood concentrations of KM-001 were evaluated using a validated analytical method as part of the toxicity studies in minipigs and rats.

Series [4] in a line: 28-day oral repeat dose toxicity study, systemic exposure. Particulars: for AUC0-tlast / Cmax: Rat, oral. The class given is in vivo, rat. On the procedure: as §2
Series [5] can be described thus: Estimated human systemic exposure and safety margins (dose-linear extrapolation from minipig PK). On the procedure:
as §2

A short description of series [6]: Saturated solubility, shake flask method, UPLC-UV. The class given is physicochemical. Conditions: for Saturated Solubility API: RT, 24 hours. On the procedure:
Saturated solubility was determined using the shake flask method with excess API at room temperature (RT). It was assumed that equilibrium was attained after 24 hours, and excess solid was separated by ultrafiltration prior to dilution and quantification. Quantification of KM-001 for saturated solubility studies was performed using a qualified UPLC-UV analytical method.

Series [7] concerns keratinocytes. Particulars: found in US 2002/0332697 A1, cited from earlier work.
Series [8] concerns the target TRPV3 (Homo sapiens, UniProt Q8NET8). Particulars: read-out: IC50 (inhibit TRPV3); found in US 2002/0332697 A1; cited from earlier work.
Series [9] concerns DS-Nh mice. The series is described as follows: DS-Nh mouse model, topical dosing (scratching behavior, skin histology). The class given is in vivo. The source says:
DS-Nh mice raised under conventional conditions spontaneously develop dermatitis and skin abnormalities characterized by hyperkeratosis, reduced basal keratinocytes proliferation, defective differentiation, and keratinization of skin appendages.
At the end of the study, the mice were sacrificed, and skin biopsies were paraffin-embedded, stained with hematoxylin and eosin (H&E) and assessed microscopically (FIG. 7).

Where [10] appears, read: 0.5% formulation, 2.25 mg/kg*day, Week 13.
Where [11] appears, read: 1.0% formulation, 4.5 mg/kg*day, Week 13.

Usually Cmax stands for the highest concentration seen after dosing. Broadly, the AUC is concentration integrated over time. Lower therefore signals low exposure. For orientation: NOAEL means the highest dose or exposure tested at which no adverse effect was seen. The IC50 is the concentration at which inhibition is half-maximal.

Sequence of TRPV3 (Q8NET8 whole entry, species assumed): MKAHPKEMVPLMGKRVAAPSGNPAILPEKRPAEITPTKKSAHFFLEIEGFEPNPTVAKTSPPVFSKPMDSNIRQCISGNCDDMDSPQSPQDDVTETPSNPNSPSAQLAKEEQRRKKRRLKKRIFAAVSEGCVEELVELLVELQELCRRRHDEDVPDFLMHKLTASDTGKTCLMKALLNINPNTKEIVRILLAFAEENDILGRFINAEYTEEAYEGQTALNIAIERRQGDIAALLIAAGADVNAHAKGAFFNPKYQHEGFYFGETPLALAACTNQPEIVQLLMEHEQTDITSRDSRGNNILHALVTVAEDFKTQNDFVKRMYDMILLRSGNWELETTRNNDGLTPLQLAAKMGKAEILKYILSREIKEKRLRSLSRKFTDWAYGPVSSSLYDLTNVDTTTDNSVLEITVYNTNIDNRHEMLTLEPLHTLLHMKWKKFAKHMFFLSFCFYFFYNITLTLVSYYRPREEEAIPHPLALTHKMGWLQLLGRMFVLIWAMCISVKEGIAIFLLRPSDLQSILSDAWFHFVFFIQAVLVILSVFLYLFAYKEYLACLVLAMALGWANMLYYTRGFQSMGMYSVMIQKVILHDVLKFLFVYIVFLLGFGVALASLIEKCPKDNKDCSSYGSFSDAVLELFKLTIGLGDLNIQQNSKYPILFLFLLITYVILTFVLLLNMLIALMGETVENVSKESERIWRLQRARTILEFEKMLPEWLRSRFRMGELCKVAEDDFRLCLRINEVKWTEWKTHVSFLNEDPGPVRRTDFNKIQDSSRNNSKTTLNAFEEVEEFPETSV

Take “(S)-2-(1,3-dimethyl-2-6-dioxo-2,3-1h-purin-7(6H)-N-(4-(3-Fluoro-4-2methylpyrrolidin-1-yl)phenyl)thiazol-2-yl)acetamide [KM-001]”: the scratching bouts result in series [1] (oral 0.01 mg/kg) is “trended to decrease”; in [1] (oral 0.1 mg/kg, p<0.01), “significantly decreased”. The scratching time result in series [1] (oral 0.01 mg/kg) is listed as “trended to decrease”; in series [1] (oral 0.1 mg/kg, p<0.001) it was “significantly decreased”. Moreover, in series [2], the “maximum plasma concentration (Cmax)” value was found to be 1.34 ng/mL. In addition, the AUC0-tlast in series [3] (0.1% formulation, 0.45 mg/kg*day, Week 13) amounted to 16.6 ng·h/mL; in series [3] (setting [10]) it was 73.7 ng·h/mL; in series [3] (setting [11]) it was 159 ng·h/mL; in series [4] (1 mg/kg*day, Day 28), 479 ng·h/mL; in [4] (5 mg/kg*day, Day 28), 4570 ng·h/mL; in [4] (10 mg/kg*day, Day 28) it was 8360 ng·h/mL. The Cmax in [3] (0.1% formulation, 0.45 mg/kg*day, Week 13, mean male and female) came to 2.3 ng/mL; in [3] (setting [10]) it was 5.3 ng/mL; in series [3] (setting [11]), 10.8 ng/mL; in [4] (1 mg/kg*day, Day 28, mean male and female) it was 97 ng/mL; in series [4] (5 mg/kg*day, Day 28), 525 ng/mL; in series [4] (10 mg/kg*day (NOAEL), Day 28), 968 ng/mL. The AUC in series [3] (minipigs, 4.5 mg KM-001/kg/day) came to 159.1 ng·h/mL; in series [4] (rat, 28-day oral repeat dose, at NOAEL of 10 mg/kg/day), 8357 ng·h/mL. The same compound yielded an NOAEL in series [4] (28-day oral repeat dose toxicity study in the rat) of 10 mg/kg/day. In addition, the “safety margin for AUC, rat vs estimated human exposure” value in series [5] (0.3%) is on record as 836 fold; in series [5] (1%), 261 fold. Moreover, the “AUC, estimated human systemic exposure” value is “approx. 10 ng/mL*h” in [5] (0.3% cream) and around 32 ng·h/mL in series [5] (1% cream). Also, the “safety margin for Cmax, rat vs estimated human exposure” value in [5] (1% cream-gel) is “approx. 242 fold”. The entries for the “Dose MiniPig API (safety factor)” value in series [5] (Human dermal 0.3% formulation vs minipig dose) and in series [5] (Human dermal 1.0% formulation vs minipig dose) were 34 and 11, respectively. For the same compound, in series [6], the “solubility in triglycerides and fatty alcohols” value is listed as “relatively soluble”. Also, the “Saturated Solubility API” value was determined as 13.1 % w/w in series [6] (M1: Miglyol 812 N 33.3%, Arlamol E 62.5%, Phenoxy-2-ethanol 4.2%); 0.7 % w/w in [6] (M2: Miglyol 812 N 8%, Arlamol E 15%, Macrol-82 77%); 1.5 % w/w in [6] (M3: Miglyol 812 N 10%, Kollicream OD 10%, Macrol-82 75%, Kollicream OA 5%); 4.0 % w/w in [6] (M6: Miglyol 812 N 20%, Arlamol E 16%, Kollicream OA 10%, Macrol-82 54%); 1.6 % w/w in series [6] (M10: Miglyol 812 N 20%, Crodamol IPM 21.85%, Kollicream OA 5%, Light Mineral Oil 53.15%); 13.0 % w/w in series [6] (M13: Miglyol 812 N 47.83%, Kollicream OD 52.17%). For the same compound, the “Saturated Solubility API” value in series [6] (M14: Miglyol 812 N 45.83%, Kollicream OD 50%, Phenoxy-2-ethanol 4.17%) amounted to 14.0 % w/w. Also, in [7], the “Ca^+2 flux in keratinocytes” value is on record as “significantly reduced”. The differentiation markers result in series [7] (keratinocytes) is reported as “normalized”. Moreover, the IC50 in [8] is around 3 nM.

Take `C=CC[C@@H]1/C=C(\C)C[C@H](C)C[C@H](OC)[C@H]2O[C@@](O)(C(=O)C(=O)N3CCCC[C@H]3C(=O)O[C@H](/C(C)=C/[C@@H]3CC[C@@H](O)[C@H](OC)C3)[C@H](C)[C@@H](O)CC1=O)[C@H](C)C[C@@H]2OC` [tacrolimus 0.1%, tacrolimus]: the reduction in scratch in series [9] (day 14, twice daily topical treatment) is on record as 20%. Further, the “mice exhibiting normalization of skin pathology” value in series [9] (two weeks of treatment, H&E histology, partial normalization for tacrolimus) is 40 % of mice.

Source of the values: patent US20250302743A1, “METHODS OF TREATING DERMATOLOGICAL CONDITIONS AND SYMPTOMS THEREOF” (KAMARI PHARMA LTD., priority 2022, published 2025).
